Reference: paper PMC9151520 (Archives of Toxicology, 2022)
Several values for one entry are separate records, joined by “and”; a condition that tells them apart may be missing. Equal values may be shown once. Read-outs that look alike come from different tables or passages of the source.

Experiments:
[1] = system: p53 signaling (p53RE-bla HCT-116 cells); test: cells; type: cell-based
[2] = system: p53 signaling (p53RE-bla HCT-116 cells)
[3] = system: p53 signaling (p53RE-bla HCT-116 cells); remark: listed apart in the source
[4] = system: p53RE-bla HCT-116 cells
[5] = read-out: p53 activation EC50, cherry pick confirmation
[6] = read-out: p53 activation EC50, primary screening
[7] = read-out: Viability EC50, cherry pick confirmation
[8] = Homo sapiens, HCT-116, read-out: EC50, p53 activation, primary screening
[9] = Homo sapiens, HCT-116, read-out: Efficacy, p53 activation, primary screening
[10] = Homo sapiens, HCT-116, read-out: p53 activation EC50, cherry pick confirmation
[11] = Homo sapiens, HCT-116, read-out: p53 activation EC50, primary screening
[12] = Homo sapiens, HCT-116, read-out: p53 activation efficacy, cherry pick confirmation
[13] = Homo sapiens, HCT-116, read-out: p53 activation efficacy, primary screening
[14] = Homo sapiens, HCT-116, read-out: EC50, p53 activation, cherry pick confirmation
[15] = Homo sapiens, HCT-116, read-out: Efficacy, p53 activation, cherry pick confirmation

Compound | p53 activation efficacy, cherry pick confirmation [1] | p53 activation efficacy, primary screening [1] | EC50 [1, 5] | EC50 [1, 6] | p53 activation EC50, cherry pick confirmation [2] | p53 activation EC50, primary screening [2] | p53 activation efficacy, cherry pick confirmation [2] | p53 activation efficacy, primary screening [2] | p53 activation EC50, cherry pick confirmation [3] | p53 activation EC50, primary screening [3] | p53 activation efficacy, cherry pick confirmation [3] | p53 activation efficacy, primary screening [3] | Viability EC50, cherry pick confirmation [4] | Viability EC50, primary screening [4] | Viability efficacy, cherry pick confirmation [4] | Viability efficacy, primary screening [4] | further results
Acriflavine hydrochloride | 281.114 | 193.527 | 2.46 µM | 5.41 µM | inactive | inactive | inactive | inactive | inactive | inactive | inactive | inactive | inactive | inactive | inactive | inactive | 
[F][Sn]([c]1ccccc1)([c]1ccccc1)[c]1ccccc1 [Triphenyltin fluoride] | 73.0027 | 39.9627 | 17.8 µM | 7.69 µM | inactive | inactive | inactive | inactive | inactive | inactive | inactive | inactive |  |  |  |  | EC50 [4, 7]: 3.63 µM and 5.54 µM and 3.92 µM
COC1=CC(=O)C[C@@H](C)[C@]12Oc1c(Cl)c(OC)cc(OC)c1C2=O [Griseofulvin] |  |  |  |  |  |  |  |  |  |  |  |  |  |  |  |  | EC50, p53 activation, cherry pick confirmation [1]: inactive; Efficacy, p53 activation, cherry pick confirmation [1]: inactive; EC50 [1, 8]: 36.3 µM; Emax [1, 9]: 41.2%; EC50, p53 activation, cherry pick confirmation [2]: inactive; EC50, p53 activation, primary screening [2]: inactive; Efficacy, p53 activation, cherry pick confirmation [2]: inactive; Efficacy, p53 activation, primary screening [2]: inactive; EC50, p53 activation, cherry pick confirmation [3]: inactive; EC50, p53 activation, primary screening [3]: inactive; Efficacy, p53 activation, cherry pick confirmation [3]: inactive; Efficacy, p53 activation, primary screening [3]: inactive; EC50, viability, cherry pick confirmation [4]: inactive; EC50, viability, primary screening [4]: inactive; Efficacy, viability, cherry pick confirmation [4]: inactive; Efficacy, viability, primary screening [4]: inactive
CCCCNC(=O)OCC#CI [3-Iodo-2-propynyl-N-butylcarbamate] | 104.439 | 78.699 | 34.4 µM | 47.6 µM | inactive | inactive | inactive | inactive | inactive | inactive | inactive | inactive | inactive | inactive | inactive | inactive | 
CC[C@@]1(O)C(=O)OCc2c1cc1n(c2=O)Cc2c-1nc1ccccc1c2/C=N/OC(C)(C)C [Gimatecan] |  |  |  |  | inactive | inactive | inactive | inactive | inactive | inactive | inactive | inactive | inactive | inactive | inactive | inactive | EC50 [1, 10]: 0.345 µM; EC50 [1, 11]: 0.118 µM; Emax [1, 12]: 257%; Emax [1, 13]: 118%
CCN(CC)CCNc1ccc(CO)c2sc3ccccc3c(=O)c12 [Hycanthone] |  |  |  |  |  |  |  |  |  |  |  |  |  |  |  |  | EC50 [1, 14]: 18.4 µM; Emax [1, 15]: 500%; EC50, p53 activation, cherry pick confirmation [2]: inactive; Efficacy, p53 activation, cherry pick confirmation [2]: inactive; EC50, p53 activation, cherry pick confirmation [3]: inactive; Efficacy, p53 activation, cherry pick confirmation [3]: inactive; EC50, viability, cherry pick confirmation [4]: inactive; EC50, viability, primary screening [4]: inactive; Efficacy, viability, cherry pick confirmation [4]: inactive; Efficacy, viability, primary screening [4]: inactive
CNC(=O)Oc1cccc2c1OC(C)(C)C2 [Carbofuran] |  |  |  |  |  |  |  |  |  |  |  |  |  |  |  |  | p53 activation EC50 [1]: inactive; p53 activation efficacy [1]: inactive; p53 activation EC50 [2]: inactive; p53 activation EC50 [3]: inactive; Viability EC50 [4]: inactive; Viability efficacy [4]: inactive
CCCSc1ccc2nc(NC(=O)OC)[nH]c2c1 [Albendazole] |  |  |  |  | inactive | inactive | inactive | inactive | inactive | inactive | inactive | inactive | inactive | inactive | inactive | inactive | EC50 [1, 10]: 0.113 µM; EC50 [1, 11]: 0.517 µM; Emax [1, 12]: 31.1%; Emax [1, 13]: 40.1%
Oc1ccc(C2(c3ccc(O)cc3)c3ccccc3-c3ccccc32)cc1 [4,4'-(9H-Fluorene-9,9-diyl)diphenol] | 169.95 | 157.361 | 44.8 µM | 47.6 µM | inactive | inactive | inactive | inactive | inactive | inactive | inactive | inactive |  | inactive |  |  | EC50 [4, 7]: 34.3 µM and 32.4 µM and 45.8 µM; EC50 ([4]; read-out: Viability EC50, primary screening): 49.5 µM
O=C(c1ccccc1)c1ccccc1 [Benzophenone] | inactive | inactive |  |  | inactive |  | inactive |  | inactive |  | inactive |  | inactive | inactive | inactive | inactive | p53 activation EC50, cherry pick confirmation [1]: inactive; p53 activation EC50, primary screening [1]: inactive
Cc1cc(C2CCCCC2)n(O)c(=O)c1 [Ciclopirox olamine] |  |  |  |  |  |  |  |  |  |  |  |  |  |  |  |  | EC50 [1, 14]: 26.5 µM; EC50 [1, 8]: 16.3 µM; Emax [1, 15]: 57.2%; Emax [1, 9]: 26%; EC50, p53 activation, cherry pick confirmation [2]: inactive; EC50, p53 activation, primary screening [2]: inactive; Efficacy, p53 activation, cherry pick confirmation [2]: inactive; Efficacy, p53 activation, primary screening [2]: inactive; EC50, p53 activation, cherry pick confirmation [3]: inactive; EC50, p53 activation, primary screening [3]: inactive; Efficacy, p53 activation, cherry pick confirmation [3]: inactive; Efficacy, p53 activation, primary screening [3]: inactive; EC50, viability, cherry pick confirmation [4]: inactive; EC50, viability, primary screening [4]: inactive; Efficacy, viability, cherry pick confirmation [4]: inactive; Efficacy, viability, primary screening [4]: inactive
